The test system of series [1] is MCF-7 human breast cancer cell line. Description: 50% inhibitory concentration of antitumor agents, living cell count with trypan blue. In kind it is cell-based. The note with it: MCF7, 48 h, read-out: 50% inhibitory concentration of antitumor agents against MCF-7.
Description: The cell line was prepared to 1×10^5 cells/ml and then cultured on a 6-well plate under conditions of 37° C. and 5% CO2 for one day. Then, the cell was treated with each antitumor agent at final concentrations of 0.001 μM, 0.01 μM, 0.1 μM, 1.0 μM, and 10 μM, followed by 2-days culture under conditions of 37° C. and 5% CO2. After removal of the culture medium, the cell was washed twice with PBS(−), to which 0.25% Trypsin-EDTA was then added in order to detach the cell from the plate. The thus detached cell was suspended with PBS(−) to a volume of 100 to which 10 μl of 0.4% trypan blue stock solution was then added, and the mixture was measured for counts of living cells using a hemocytometer. The rate of living cells in case that the cell was treated with each antitumor agent (i.e., a chemotherapeutic) was calculated, wherein the number of living cells in case that the cell was not treated with each antitumor agent was designated at 100%. 50% inhibitory concentration was roughly estimated based on the obtained values, and each antitumor agent was prepared to have a concentration around the determined 50% inhibitory concentration, and thereafter procedures similar to the above were further performed in order to calculate a more specific 50% inhibitory concentration.
MCF-7 cell line was prepared to 1×10^5 cells/mL, and then cultured on a 6-well plate under conditions of 37° C. and 5% CO2 for one day. […] After removal of the culture medium, the cell was washed with PBS(−) twice, to which 0.25% Trypsin-EDTA was added in order to detach the cell from the plate. The detached cell was suspended in PBS(−) to a volume of 100 μl, to which 10 μl of 0.4% trypan blue stock solution was further added. The mixture was measured for counts of living cells using a hemocytometer. […] The IC50 values of respective antitumor agents in each type of cancer cells were calculated by using the same procedures.
Series [2] relates to human breast cancer cell line MDA-MB-157. The series is described as follows: ADCC activity, chromium-51 release. The class given is cell-based. The settings on record: 1 μg antibody, mouse lymphocytes 2×10^5 cells, 10^3 target cells, 4 hours. As to the method: The above-selected anti-CAPRIN-1 monoclonal antibodies #1 to #11 were evaluated for their cytotoxic activities against cancer cells (ADCC activity). Hybridomas producing the monoclonal antibodies #1 to #11 were each cultured using hybridoma SFM medium (Invitrogen). The thus obtained supernatant was purified using Hitrap ProteinA Sepharose FF (GE HealthCare), replaced with PBS(−), and then filtered through 0.22 μm filter (Millipore). The obtained filtrates were used as antibodies for assay. The human breast cancer cell line MDA-MB-157 (10^6 cells) was collected in a 50-ml centrifuge tube, to which 100 μCi chromium(Cr)-51 was then added, and incubated at 37° C. for 2 hours. Subsequently, the cells were washed 3 times with RPMI1640 medium containing 10% FBS, and then dispensed into each well of a 96-well V-bottom plate at 10^3 cells per well. The thus obtained cells are used as target cell. The above purified antibodies (1 μg each) were added to the cells. Separately, mouse lymphocytes separated from the mouse spleen were further added (2×10^5 cells) and then cultured under conditions of 37° C. and 5% CO2 for 4 hours. After culture, the amount of chromium(Cr)-51 released from cytotoxically impaired tumor cells in a culture supernatant was measured, so that the ADCC activity of each anti-CAPRIN-1 antibody against cancer cells was calculated. […] On the other hand, similar procedures were performed using the monoclonal antibodies (which were prepared in Example 2) reactive with the CAPRIN-1 protein itself, but not reactive with the surface of cancer cells, no cytotoxic activity was observed (see FIG. 1). […] Similarly, the anti-CAPRIN-1 antibodies were examined for ADCC activity against other human cancer cell lines including glioma cell lines (T98G and U373), lung cancer cell lines (A549 and QG56), renal cancer cell lines (Caki-1 and ACHN), a uterine cervix cancer cell line (SW756), a bladder cancer cell line (T24), an esophageal cancer cell line (KYSE180), gastric cancer cell lines (MNK28 and MNK45), a colorectal cancer cell line (SW480), a leukemia cell line (AML5), and a lymphoma cell line (Ramos).

For series [3], the system named is MCF-7 human breast cancer cell line. Description: In vivo combination therapy in tumor-bearing nude mice transplanted with MCF-7. The note with it: experimental section 1 (anti-CAPRIN-1 antibody = #2, 5 mg/kg i.p.), day 26, mouse PBMC given to all groups. On the procedure:
IgG2b (R&D systems, catalog No. MAB11291)) were administered in combination, a group to which an antitumor agent and anti-CAPRIN-1 monoclonal antibody were administered in combination, and a group to which control (PBS(−) was administered. In addition, mouse PBMC was administered to all the administration groups. […] PBMC separated from Balb/c mouse spleen was intravenously administered to each mouse at 1×10^7 cells/0.2 mL (RPMI1640) on days 0, 8, and 15 after the start of the experiment. […] PBMC separated from Balb/c mouse spleen was intravenously administered to each mouse at 1×10^7 cells/0.2 mL (RPMI1640) on days 0, 8, and 15 after the start of the experiment. Paclitaxel was intraperitoneally administered to each of 5 tumor-bearing mice at 15 mg/kg/shot on days 0 and 3 after the start of the experiment. PBMC separated from Balb/c mouse spleen was intravenously administered to each mouse at 1×10^7 cells/0.2 mL (RPMI1640) on days 0, 8, and 15 after the start of the experiment. Docetaxel was intraperitoneally administered to each of 5 tumor-bearing mice at 10 mg/kg/shot on days 0 and 3 after the start of the experiment. PBMC separated from Balb/c mouse spleen was intravenously administered to each mouse at 1×10^7 cells/0.2 mL (RPMI1640) on days 0, 8, and 15 after the start of the experiment. […]

Setting [4] is: MCF-7, 2-days culture with agent, living cells counted with trypan blue.

Where two headings read alike, the source gives them in different places.

As for `O=P1(N(CCCl)CCCl)NCCCO1` (centres unmarked) [Cyclophosphamide, cyclophosphamide], the IC50 in series [1] was found to be 30 nM. With `CC(=O)O[C@@]12CO[C@@H]1C[C@H](O)[C@@]1(C)C(=O)[C@H](O)C3=C(C)[C@@H](OC(=O)[C@H](O)[C@@H](NC(=O)OC(C)(C)C)c4ccccc4)C[C@@](O)([C@@H](OC(=O)c4ccccc4)[C@H]21)C3(C)C` [Docetaxel, docetaxel], the IC50 in series [1] (setting [4]) is 0.1 nM. As for `CC(=O)O[C@H]1C(=O)[C@@]2(C)[C@H]([C@H](OC(=O)c3ccccc3)[C@]3(O)C[C@H](OC(=O)[C@H](O)[C@@H](NC(=O)c4ccccc4)c4ccccc4)C(C)=C1C3(C)C)[C@]1(OC(C)=O)CO[C@@H]1C[C@@H]2O` [Paclitaxel, paclitaxel], the IC50 in series [1] (setting [4]) turned out to be 10 nM. Same read-out and setting: the same measure for `CCC1=C[C@@H]2CN(C1)Cc1c([nH]c3ccccc13)[C@@](C(=O)OC)(c1cc3c(cc1OC)N(C)[C@H]1[C@@](O)(C(=O)OC)[C@H](OC(C)=O)[C@]4(CC)C=CCN5CC[C@]31[C@@H]54)C2` [Vinorelbine, vinorelbine]: 20 nM.

B1: monoclonal antibody #6: mouse anti-CAPRIN-1 monoclonal antibody; heavy chain variable region SEQ ID NO: 73, light chain variable region SEQ ID NO: 77 (antibody, listed as Mus musculus, V domains shown)
VH: DILQASGYSFTGYTMNWVKQSHGKNLEWIGLINPYNGGTSYNQKFKGKATLTVDKSSSTAYMELLSLTSEDSAVYYCARWGVWSAMDYWGQGTTVTVSSK
VL: DRVSITCKASQNVRTAVAWYQQKPRQSPKALIYLASNRDTGLPDRFPGRGSGTDFTLNITNVQSEDLEDYFCLQHCNYPNEFRGCTKVPI
With B1, in series [2], the “ADCC activity (cytotoxic activity) against MDA-MB-157” value (“ADCC activity (cytotoxic activity)” for short) amounted to 30.2%.

B2: monoclonal antibody #1: mouse anti-CAPRIN-1 monoclonal antibody; heavy chain variable region SEQ ID NO: 43, light chain variable region SEQ ID NO: 47 (antibody, listed as Mus musculus, V domains shown)
VH: MEWSGVFIFLLSGTAGVLSEVQLHQFGAELVKPGASVKISCKASGYTFTDYNMDWVKQSHGKSLEWIGDINPNYDSTSYNQKFKGKATLTVDKSSSTAYMELRSLTSEDTAVYYCARSRSYDYEGFAYWGQGTLVTVSAAKTTPPSVY
VL: MSVLTQVLGLLLLWLTGARCDIQMTQSPASLSASVGETVTITCRASGNIHNYLAWYQQKQGKSPQLLVYNAKTLADGVPSRFSGSGSGTQYSLKINSLQPEDFGSYYCQHFWSTLTFGAGTKLELKRADAAPTVSNPYD
For the molecule B2, in series [2], the “ADCC activity (cytotoxic activity)” value is given as 22.1%.

B3: monoclonal antibody #2: mouse anti-CAPRIN-1 monoclonal antibody; heavy chain variable region SEQ ID NO: 43, light chain variable region SEQ ID NO: 53 (antibody, listed as Mus musculus, V domains shown)
VH: B2 VH
VL: AVLRCSRGLLVIWISDIQLTQSPSSLAVTAGEKVTMSCKSSQSLLWSVNQKNYLSWYQQKQRQPPKLLIYGASIRESWVPDRFTGSGSGTDFTLTISNVHAEDLAVYYCQHNHGSFLPSRSEQVPSWRSNNR
For the molecule B3, the “ADCC activity (cytotoxic activity)” value in series [2] came out at 29.1%. In addition, in series [3], the “tumor volume relative to PBS(−) control group designated at 100%” value was “about 56%”.

(Values after US9180187B2, “Medicament for treating and/or preventing cancer” (TORAY INDUSTRIES, INC., priority 2010, dated 2015).)
